# From patent publication US4851211A, “LHRH analog formulations” (Abbott Laboratories, priority 1986, dated 1989)
# Legend:
# [1] = Bioabsorption testing: leuprolide levels after inhalation of solution aerosol (radioimmunoassay); conditions: aerosol compared with comparable intravenous dose
# Method: Healthy male beagle dogs (9-18 months old) were provided with free access to food during entire study. There were three dogs of each sex in each treatment group. Body weight, food consumption and other pertinent clinical signs were monitored at a regular basis during the study. […] Drug administration was carried out through 2 weeks. Leuprolide plasma concentrations was determined during day 1 of the study in order to evaluate bioabsorption of leuprolide from the aerosol. Blood samples of approximately 2-3 ml were obtained from the jugular vein and allowed to clot. After centrifugation, the serum fraction was removed and assayed for leuprolide using a radioimmunoassay technique. Relative absorption of leuprolide via the inhalation route of administration was estimated using mean historical data from representative intravenously administered formulations.
# [2] = no counterion
# [3] = ionizable site of leuprolide; cited from earlier work
compound,measurement,setting,value
"CCNC(=O)[C@@H]1CCCN1C(=O)[C@H](CCCNC(=N)N)NC(=O)[C@H](CC(C)C)NC(=O)[C@@H](CC(C)C)NC(=O)[C@H](Cc1ccc(O)cc1)NC(=O)[C@H](CO)NC(=O)[C@H](Cc1c[nH]c2ccccc12)NC(=O)[C@H](Cc1c[nH]cn1)NC(=O)[C@@H]1CCC(=O)N1 [leuprolide, 5-Oxo-L-prolyl-L-histidyl-L-tryptophanyl-L-seryl-L-tyrosyl-D-leucyl-L-leucyl-L-arginyl-L-prolylethylamide acetate]",plasma peak concentration,[1],approximately equals that of a comparable dose administered intravenously
same,solubility of leuprolide,[2]; mixtures of ethyl alcohol and fluorocarbons,~3000 µg/mL
same,equilibrium solubility of leuprolide,"[2]; mixtures of fluorocarbons, ethyl alcohol and water",~5000 µg/mL
same,"pKa, guanidine nitrogen of arginine",[3],approximately 13.0
same,"pKa, imidazolyl nitrogen of histidine",[3],approximately 6.0
same,"pKa, phenolic hydroxyl of tyrosine",[3],approximately 10.0
